PMC10762177, “Novel betulin derivatives as multidrug reversal agents targeting P-glycoprotein” (Scientific Reports, 2024)

What was measured:
[1] = system: K562 cells; assay: MTT colorimetric assay, cytotoxicity on sensitive K562; assay type: cell-based; conditions: Homo sapiens, K562, 48 h, MTT, 48 h, K562
Method: (§1) This colorimetric technique is based on the ability of viable cells to capture MTT and reduce it through the mitochondrial enzyme succinic dehydrogenase to its insoluble form, formazan crystals. […] After this time, the plate was centrifuged at 2000 rpm for 10 min, and 100 µL of DMSO was added to dissolve the formazan crystals formed. Absorbance (Abs) was read at a wavelength of 595 nm in an iMark microplate reader (Bio-Rad, USA).

[2] = system: K562/Dox cells; assay: MTT colorimetric assay, cytotoxicity on resistant K562/Dox; assay type: cell-based; conditions: Homo sapiens, K562, 48 h, MTT, 48 h, K562/Dox; read-out: IC50 K562/Dox
Method: as §1, with “crystals. The target compounds dissolved in DMSO (0.5% v/v as final concentration which was non-toxic to cells) at a maximum concentration of 50 µM were exposed to 5 × 10^4 cells distributed in a 96-well plate and incubated for 48 h.” for “crystals.”, “USA). The percentages of cytotoxicity were determined as compared to DMSO treated control cells, which were considered 100% viable as showing the same level of growth as the untreated cells.” for “USA).”

[3] = molecular target: T1, P-gp (Homo sapiens, UniProt P08183); assay: Rhodamine 123 intracellular accumulation assay in K562/Dox (flow cytometry); conditions: for FAR (fluorescence activity ratio): Rho123, K562/Dox
[4] = molecular target: T1, P-gp; set-up: MDR phenotype mainly characterized by the overexpression of ABCB1/P-gp; endogenous in cells; host or cells: K562/Dox (formerly Lucena 1), drug-selected and kept under 60 nM Dox; parental K562 used as the low-P-gp control; conditions: cited from earlier work

T1 sequence (P08183 whole entry): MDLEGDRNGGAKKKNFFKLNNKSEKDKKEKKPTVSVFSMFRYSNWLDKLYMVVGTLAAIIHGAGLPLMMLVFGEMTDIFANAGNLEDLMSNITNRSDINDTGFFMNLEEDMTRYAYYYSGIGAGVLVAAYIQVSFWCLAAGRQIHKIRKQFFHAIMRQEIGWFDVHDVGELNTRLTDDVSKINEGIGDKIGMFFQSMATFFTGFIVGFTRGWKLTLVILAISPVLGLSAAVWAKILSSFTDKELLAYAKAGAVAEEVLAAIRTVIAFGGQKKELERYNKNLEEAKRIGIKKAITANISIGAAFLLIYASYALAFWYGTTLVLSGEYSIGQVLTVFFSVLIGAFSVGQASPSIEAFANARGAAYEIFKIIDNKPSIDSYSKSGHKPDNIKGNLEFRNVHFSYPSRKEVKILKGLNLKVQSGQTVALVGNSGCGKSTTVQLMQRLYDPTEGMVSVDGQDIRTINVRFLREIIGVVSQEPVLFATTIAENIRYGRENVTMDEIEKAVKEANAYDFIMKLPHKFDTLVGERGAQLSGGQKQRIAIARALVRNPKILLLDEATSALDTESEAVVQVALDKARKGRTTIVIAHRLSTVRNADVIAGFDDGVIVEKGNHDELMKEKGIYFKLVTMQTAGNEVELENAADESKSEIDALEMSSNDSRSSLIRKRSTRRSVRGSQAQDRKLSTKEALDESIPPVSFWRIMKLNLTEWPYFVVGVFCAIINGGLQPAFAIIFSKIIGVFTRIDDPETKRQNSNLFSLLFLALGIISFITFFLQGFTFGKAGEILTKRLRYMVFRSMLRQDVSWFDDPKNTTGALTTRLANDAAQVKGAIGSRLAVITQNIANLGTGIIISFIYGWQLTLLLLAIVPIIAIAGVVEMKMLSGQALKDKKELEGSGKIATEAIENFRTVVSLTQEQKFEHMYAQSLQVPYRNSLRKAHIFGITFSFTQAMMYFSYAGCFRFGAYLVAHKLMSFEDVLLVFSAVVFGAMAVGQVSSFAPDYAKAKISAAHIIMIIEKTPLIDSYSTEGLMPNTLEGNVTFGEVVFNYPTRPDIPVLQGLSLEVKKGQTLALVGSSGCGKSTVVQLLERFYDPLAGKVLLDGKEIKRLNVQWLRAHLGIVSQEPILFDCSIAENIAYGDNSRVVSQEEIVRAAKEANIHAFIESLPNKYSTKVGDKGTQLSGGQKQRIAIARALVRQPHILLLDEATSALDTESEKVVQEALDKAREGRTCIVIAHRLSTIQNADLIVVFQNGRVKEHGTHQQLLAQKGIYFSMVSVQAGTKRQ

SMILES | IC50 [1] [µM] | IC50 [2] [µM] | FAR (fluorescence activity ratio) ([3]; 1.56 µM) | FAR (fluorescence activity ratio) ([3]; 3.12 µM) | FAR (fluorescence activity ratio) ([3]; 6.25 µM) | FAR (fluorescence activity ratio) ([3]; 12.50 µM) | FAR (fluorescence activity ratio) ([3]; 25 µM) | FAR (fluorescence activity ratio) ([3]; 50 µM) | MEC (minimum effective concentration) ([3]; Rho123 accumulation, K562/Dox) [µM] | effective concentration, P-gp inhibition [4] [µM]
C=C(C)[C@@H]1CC[C@]2(COC(=O)N3CCc4cc(OC)c(OC)cc4C3)CC[C@]3(C)[C@H](CC[C@@H]4[C@@]5(C)CC[C@H](O)C(C)(C)[C@@H]5CC[C@]43C)[C@@H]12 [Compound 6m] | > 50 | > 50 | 1.03 ± 0.12 | 1.17 ± 0.03 | 1.27 ± 0.09 | 1.32 ± 0.14 | 1.52 ± 0.09 | 2.06 ± 0.15 | 3.12 | –
C=C(C)[C@@H]1CC[C@]2(C)CC[C@]3(C)[C@H](CC[C@@H]4[C@@]5(C)CC[C@H](O)C(C)(C)[C@@H]5CC[C@]43C)[C@@H]12 [lupeol] | – | – | – | – | – | – | – | – | – | 100
CC1(C)CC[C@]2(C(=O)O)CC[C@]3(C)C(=CC[C@@H]4[C@@]5(C)CC[C@H](O)C(C)(C)[C@@H]5CC[C@]43C)[C@@H]2C1 [oleanolic acid] | – | – | – | – | – | – | – | – | – | 2
